Reference: ChEMBL document CHEMBL3217743, “Reduction of acyl glucuronidation in a series of acidic 11-hydroxysteroid dehydrogenase type 1 (11-HSD1) inhibitors: the discovery of AZD6925” (Medchemcomm, 2012)

Columns and labels:
[1] = Octanol-buffer partition coefficient, log D of the compound at pH 7.4 after 30 mins by shake-flask method; assay type: physicochemical
[2] = Fraction unbound in rat plasma by equilibrium dialysis technique; assay type: ADME, cell-free
[3] = Clearance in rat hepatocytes measured per 10^6 cells; assay type: ADME, cell-based, Hepatocyte; conditions: read-out: CLH
[4] = Clearance in rat; assay type: ADME, organism-based; conditions: in vivo
[5] = in vivo; conditions: rat
[6] = Drug metabolism in rat hepatocytes assessed as ratio of glucuronidated to oxidized compound level by LC-MS/MS analysis; assay type: ADME, cell-based, Hepatocyte
[7] = Drug metabolism in dog hepatocytes assessed as ratio of glucuronidated to oxidized compound level by LC-MS/MS analysis; assay type: ADME, cell-based, Canis lupus familiaris, Hepatocyte
[8] = Drug metabolism in human hepatocytes assessed as ratio of glucuronidated to oxidized compound level by LC-MS/MS analysis; assay type: ADME, cell-based, Hepatocyte
[9] = Drug excretion in bile duct cannulated rat urine assessed as compound remaining by HPLC analysis; assay type: ADME, tissue-based; conditions: read-out: Stability
[10] = Drug excretion in bile duct cannulated rat bile assessed as ratio of glucuronidated to oxidized compound level by HPLC analysis; assay type: ADME, tissue-based; conditions: in vivo
[11] = Drug excretion in bile duct cannulated rat urine assessed as ratio of glucuronidated to oxidized compound level by HPLC analysis; assay type: ADME; conditions: in vivo
[12] = Inhibition of N-terminal 6-His-tagged dog full length 11beta-HSD1 assessed as conversion of cortisone to cortisol after 25 mins by HTRF assay; design: species or system Canis lupus familiaris
[13] = Inhibition of N-terminal 6-His-tagged cynomolgus monkey full length 11beta-HSD1 assessed as conversion of cortisone to cortisol after 25 mins by HTRF assay; design: species or system Macaca fascicularis
[14] = Apparent permeability from apical to basolateral side in human Caco2 cells; assay type: ADME, cell-based; conditions: Caco-2

CCCSc1nc(N2C[C@@H]3[C@H](C2)[C@H]3C(=O)O)ccc1C(=O)NC1CCCCC1
logD at 0.5 h [1]: 1.8
fraction unbound [2]: 0.025
hepatocyte CLint [3]: < 2 µL/min/1e6 cells
clearance [4]: 2 mL/min/kg
bioavailability [5]: 80%

CCCSc1nc(N2C[C@@H]3[C@H](C2)[C@H]3C(=O)O)ccc1C(=O)N[C@H]1C2CC3CC1C[C@](O)(C3)C2
logD at 0.5 h [1]: 0.8
fraction unbound [2]: 0.108
hepatocyte CLint [3]: < 2 µL/min/1e6 cells
clearance [4]: 42 mL/min/kg
bioavailability [5]: 48%

CCCSc1nc(N2CCC[C@@H](CC(=O)NS(C)(=O)=O)C2)ccc1C(=O)NC1CCCCC1
logD at 0.5 h [1]: 1.6
fraction unbound [2]: 0.017
hepatocyte CLint [3]: 38 µL/min/1e6 cells
clearance [4]: 35 mL/min/kg
bioavailability [5]: 5%

CCCSc1nc(N2CCCC(C3(C(=O)O)CC3)C2)ccc1C(=O)NC1CCCCC1 (configuration not stated)
logD at 0.5 h [1]: 3.5
fraction unbound [2]: 0.002
hepatocyte CLint [3]: 15 µL/min/1e6 cells
clearance [4]: 8 mL/min/kg
bioavailability [5]: 71%

CCCSc1nc(N2CC[C@H](CC(=O)O)C2)ccc1C(=O)NC1CCCCC1
logD at 0.5 h [1]: 1.7
fraction unbound [2]: 0.01
hepatocyte CLint [3]: < 2 µL/min/1e6 cells
clearance [4]: 2 mL/min/kg
bioavailability [5]: 96%

CCCSc1nc(N2CCC(C(=O)O)C2)ccc1C(=O)NC1CCCCC1 (configuration not stated)
logD at 0.5 h [1]: 1.1
fraction unbound [2]: 0.012
hepatocyte CLint [3]: 3 µL/min/1e6 cells
clearance [4]: 3 mL/min/kg
bioavailability [5]: 52%

CCCSc1nc(N2CCC[C@@H](Cc3nnn[nH]3)C2)ccc1C(=O)NC1CCCCC1
logD at 0.5 h [1]: 2.4
fraction unbound [2]: 0.006
hepatocyte CLint [3]: 9 µL/min/1e6 cells
clearance [4]: 31 mL/min/kg
bioavailability [5]: 21%

CCCSc1nc(N2CCC[C@@H](CC(=O)O)C2)ccc1C(=O)NC1CCCCC1 [AZD-4017]
Ratio [6]: 2.1
Ratio [7]: 4.1
Ratio [8]: 6
dose excreted [9]: 4%
Ratio [10]: 7.5
Ratio [11]: 2.4
IC50 [12]: 3770 nM
IC50 [13]: 29 nM
fraction unbound [2]: 0.018
hepatocyte CLint [3]: < 2 µL/min/1e6 cells
bioavailability [5]: 66%

O=C(N[C@H]1C2CC3CC1C[C@](OC(F)F)(C3)C2)c1ccc(N2C[C@@H]3[C@H](C2)[C@H]3C(=O)O)nc1SC1CCCC1
logD at 0.5 h [1]: 3.4
fraction unbound [2]: 0.005
hepatocyte CLint [3]: 7 µL/min/1e6 cells
clearance [4]: 9 mL/min/kg
bioavailability [5]: 94%

CCCSc1nc(N2CCCC(C(C)(C)C(=O)O)C2)ccc1C(=O)NC1CCCCC1 (configuration not stated)
logD at 0.5 h [1]: 3.3
fraction unbound [2]: 0.004
hepatocyte CLint [3]: 22 µL/min/1e6 cells
clearance [4]: 9 mL/min/kg
bioavailability [5]: 84%

O=C(N[C@H]1C2CC3CC1C[C@](O)(C3)C2)c1ccc(N2C[C@@H]3[C@H](C2)[C@H]3C(=O)O)nc1SC1CCCC1
logD at 0.5 h [1]: 1.5
fraction unbound [2]: 0.04
hepatocyte CLint [3]: 4 µL/min/1e6 cells
clearance [4]: 43 mL/min/kg
bioavailability [5]: 57%

O=C(O)[C@H]1[C@@H]2CN(c3ccc(C(=O)N4CCC(c5cccnc5)C4)c(SC4CCCC4)n3)C[C@@H]21 (some centres not stated)
logD at 0.5 h [1]: 1.2
fraction unbound [2]: 0.034
hepatocyte CLint [3]: 20 µL/min/1e6 cells
clearance [4]: 18 mL/min/kg
Papp A→B [14]: 2 ×10⁻⁶ cm/s
bioavailability [5]: 3%
